Measured values from US7279161B2, “Factor IX/factor IXa activating antibodies and antibody derivatives” (Baxter Aktiengesellschaft, priority 1999, dated 2007).
“Also recorded” adds a separate entry of the source.

Molecular target: T1, factor IXa (Bos taurus, UniProt P00741)
T1 construct: purchased Chromogenix COATEST VIII:C/4
Assay: Chromogenic FVIII assay (COATEST VIII:C/4) with the kit's FIXa/FX
Assay type: biochemical, bovine
Details: bovine FIXa and FX only; A1/3 24 μM
Method: In order to assay the FVIII-like activity of anti-FIXa antibodies secreted by hybridoma cells, the commercially available test-kit COATEST VIII:C/4® (Chromogenix) was employed. The assay was done essentially as described by the manufacturer with the following modifications:
To allow high throughput screening, the assay was downscaled to microtiter plate format. Briefly, 25 μl aliquots of hybridoma supernatants were transferred to microtiter plate (Costar, #3598) wells and warmed to 37° C. Chromogenic substrate (S-2222), synthetic thrombin inhibitor (I-2581), factor (F) IXa and FX were reconstituted in sterile water and FIXa/FX was mixed with phospholipids according to the supplier's protocol. Per reaction, 50 μl of the phospholipid/FIXa/FX solution were combined with 25 μl CaCl2 (25 mM) and 50 μl of the substrate/inhibitor cocktail. To start the reaction, 125 μl of the premix were added to the hybridoma supernatant in the microtiter plates and incubated at 37° C. Absorbency at 405 nm and 490 nm of the samples was read at various times (30 min to 12 h) against a reagent blank (MLW, cell culture medium instead of hybridoma supernatant) in a Labsystems iEMS Reader MF™ microtiter plate reader. FVIII-like activity of the samples was calculated by comparing the absorbency of the samples against the absorbency of a diluted FVIII reference standard (IMMUNO AG #5T4AR00) using GENESIS™ software.
Several anti-FIX/FIXa antibody producing hybridoma clones were subcloned up to four times and the resulting monoclonal hybridoma cell line used to produce monoclonal antibody containing supernatant. IgG isotype antibodies derived from these supernatants were purified over affinity columns and dialyzed against TBS (see above). IgM antibodies were used as unpurified supernatant fractions. […] Absorbance at 405 nm and 490 nm of the samples was read at various times (5 min to 6 h) against a reagent blank (cell culture medium instead of hybridoma supernatant) in a Labsystems iEMS Reader MF™ microtiter plate reader using GENESIS™ software. […]

T1 sequence (P00741 47-192 limits assumed): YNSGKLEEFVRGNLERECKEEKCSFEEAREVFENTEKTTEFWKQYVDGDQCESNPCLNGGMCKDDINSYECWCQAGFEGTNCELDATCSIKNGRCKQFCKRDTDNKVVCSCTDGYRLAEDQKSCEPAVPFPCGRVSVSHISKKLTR
T1 sequence (P00741 228-462 limits assumed): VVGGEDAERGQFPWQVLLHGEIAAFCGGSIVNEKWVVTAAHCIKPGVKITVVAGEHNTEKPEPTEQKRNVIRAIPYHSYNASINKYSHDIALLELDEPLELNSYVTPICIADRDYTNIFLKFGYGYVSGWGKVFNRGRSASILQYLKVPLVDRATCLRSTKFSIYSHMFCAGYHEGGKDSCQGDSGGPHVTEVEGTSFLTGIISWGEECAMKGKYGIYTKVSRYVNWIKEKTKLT

Sequence: RRREGGGYYVNWYFDRRR [A1/3]
- chromogenic FVIII-like activity (FXa generation) without human FIXa: does not react with bovine FIXa and FX; also recorded: does not give rise to any FXa generation
